{
  "source": "paper PMC6678097",
  "about": "“Machilin A Inhibits Tumor Growth and Macrophage M2 Polarization Through the Reduction of Lactic Acid” (Cancers, 2019)",
  "key": {"Hep3B": {"test_system": "Hep3B", "test": "Cell viability, MTT assay", "type": "cell-based, human", "method": "Human colon cancer cells (WiDr, DLD-1, RKO, and HT29) and murine Lewis lung carcinoma (LLC) cells were purchased from the American Type Culture Collection (Manassas, VA, USA). Human breast cancer MCF7 cells, human hepatocellular carcinoma cells (Huh-7, HepG2, and Hep3B), and human lung cancer cells (HCC-95 and NCI-H1793) were provided by the Korean Cell Line Bank (Seoul, Korea). The HCC-95 and NCI-H1793 cells were grown in a Roswell park memorial institute medium (RPMI) 1640 medium (HyClone^TM; GE Healthcare, Chicago, IL, USA). All other cells were grown in Dulbecco’s modified eagle medium (DMEM) supplemented with L-glutamine (200 mg/L), 10% (v/v) heat-inactivated fetal bovine serum (FBS; Sigma-Aldrich, St. Louis, MO, USA), and antibiotics (100 U/mL penicillin and 100 μg/mL streptomycin; Thermo Fisher Scientific, Waltham, MA, USA) in a humidified incubator at 37 °C and with 5% CO2 before the experiments. For induction of hypoxia condition (1% oxygen), the cells were cultured were cultured in the mixture of 94% nitrogen and 5% CO2/air at 37 °C for 24 h in cell culture incubator. Cytotoxicity of MA was evaluated using an MTT assay. Briefly, cells were incubated in 24-well plates with specified concentrations of MA for 24 or 48 h. Then, MTT solution (2.0 mg/mL) was added to each well. After 4 h of incubation at 37 °C and 5% CO2 in a cell culture incubator, the conditioned media were removed, and the amount of formazan crystals formed in living cells was estimated by measuring the absorbance at 540 nm using a microplate reader (Spectramax M2; Molecular Devices, CA, USA). The respective percentages of living cells were compared with a control treatment."}, "[1]": {"test": "In vivo toxicity to liver and kidney (serum AST, ALT, creatinine, BUN)", "settings": "mice with allograft tumors", "method": "LLC and CT26 cells were suspended separately in PBS (5 × 10^5 cells/100 µL PBS) and inoculated in subcutaneously on the back of 7-week-old C57BL/6 mice and BALB/c mice respectively (Orient Bio Inc., Seongnam, Korea; n = 7). One day after the inoculation with tumor cells, mice of the control group (n = 7) were intraperitoneally administrated 100 µL of PBS per day for 18 days. Each of the MA-treated mice were intraperitoneally administrated 0.02, 0.2, or 1 mg MA, respectively, in 100 µL PBS per 20 g body weight, each day for 18 days. All mice were euthanized 19 days after inoculation with the tumor cells, and the tumors were excised and weighed. Length (l) and width (w) of each tumor were measured using a caliper, and the respective volume (V) was calculated according to the formula V = [(l × w^2)/2]. Tumors were immediately removed from euthanized mice and prepared for histological examinations. To test liver and kidney toxicity of MA, at the end of the in vivo allograft experiment blood was collected from each mouse and serum was separated. Biochemical analyses of aspartate aminotransferase (AST), alanine aminotransferase (ALT), creatinine, and blood urea nitrogen (BUN) were performed using a commercial service (Green Cross Co., Yongin, Korea). […]"}, "[2]": {"test_system": "RAW264.7 macrophage cells", "test": "Viability of macrophage cells, MTT", "type": "cell-based", "settings": "direct treatment, 24 h", "method": "Figure S10. The viabilities of HUVECs and RAW264.7 cells on MA. (A) HUVECs were treated with indicated concentration of machilin A for 24 h. The viabilities of cells were evaluated by MTT assay.\n(B ) HUVECs seeded to the Matrigel-coated wells treated with machilin A for 24 h. ( C) Raw 264.7 macrophage cells were treated with indicated concentration of machilin A for 24 h. The viabilities of cells were evaluated by MTT assay.\n(1 picture or pasted object on this page, not shown here)"}, "[3]": {"test_system": "RAW264.7 macrophage cells", "test": "M2 marker expression in macrophages treated with conditioned medium of MA-treated cancer cells", "type": "cell-based", "settings": "medium harvested from MA-treated (30 µM) cancer cells in hypoxic condition", "method": "Total RNA of the cells was isolated using a GeneJET RNA Purification Kit (Thermo Fisher Scientific, Waltham, MA, USA). One microgram of RNA was reverse-transcribed using a RevertAid reverse transcriptase (Thermo Fisher Scientific, Waltham, MA, USA), and single-stranded cDNA was PCR-amplified using AccPower® PCR PreMix (Bioneer, Daejeon, Korea). The qRT-PCR was performed using the QuantiNova™ SYBR®Green PCR Kit (Qiagen, GmbH, Hilden, Germany) and a Qiagen Rotor-Gene® Q Real-Time PCR Detection System according to the manufacturer’s instructions. PCR products were separated using electrophoresis on 1.5% agarose gel containing ethidium bromide in 1 × Tris-acetate buffer and were visualized under UV light.\nTo investigate the formation of a capillary-like network of human umbilical vein endothelial cells (HUVECs) through the activation of tumor associated macrophages (TAMs) by lactate secreted by cancer cells, a tube formation assay was performed according to a previous study, with several modifications. For the preparation of conditioned media, HT29 colon cancer cells (3.5 × 10^5 cells) suspended in 2 mL of DMEM were seeded on 6-well plates, with or without addition of 30 µM MA, and incubated under normoxic or hypoxic conditions. […]"}},
  "data": [
    {"smiles": "C[C@H](Cc1ccc2c(c1)OCO2)[C@@H](C)Cc1ccc2c(c1)OCO2", "note": "[MA, bis(3,4-methylenedioxy)-8,8’-lignan]", "values": [
      {"measurement": "IC50", "setting": "Hep3B; Homo sapiens, normoxic", "value": "140 ± 8.55", "unit": "µM"},
      {"measurement": "growth of cells", "setting": "Hep3B; hypoxic and normoxic conditions, 48 h", "value": "substantially inhibited the growth"},
      {"measurement": "in vivo toxicity to liver and kidney", "setting": "[1]", "value": "no significant toxic effect"},
      {"measurement": "growth of RAW264.7 macrophage cells", "setting": "[2]", "value": "did not directly inhibit"},
      {"measurement": "Arg1, CD206, YM1, and VEGF expression in macrophages", "setting": "[3]", "value": "reduction of Arg1, CD206, YM1, and VEGF expression"}
    ]}
  ]
}
